The source made the active and inactive calls. The calls are words filed in the database; no cut-off is given here.
Assays:
[1] = target: B-cell lymphoma 6 protein (Homo sapiens, UniProt P41182); test: BCL6:BCOR ULight TR-FRET
[2] = target: Prostaglandin G/H synthase 1 (Homo sapiens) (UniProt P23219); test: COX-1 Eurofins SafetyScreen44 (BI); conditions: Compound concentration 10.0 uM
[3] = target: T1, 5-hydroxytryptamine receptor 1A (Homo sapiens) (UniProt P08908); test: 5HT1A/H Eurofins SafetyScreen44 (BI); conditions: Compound concentration 10.0 uM
T1 sequence (whole entry): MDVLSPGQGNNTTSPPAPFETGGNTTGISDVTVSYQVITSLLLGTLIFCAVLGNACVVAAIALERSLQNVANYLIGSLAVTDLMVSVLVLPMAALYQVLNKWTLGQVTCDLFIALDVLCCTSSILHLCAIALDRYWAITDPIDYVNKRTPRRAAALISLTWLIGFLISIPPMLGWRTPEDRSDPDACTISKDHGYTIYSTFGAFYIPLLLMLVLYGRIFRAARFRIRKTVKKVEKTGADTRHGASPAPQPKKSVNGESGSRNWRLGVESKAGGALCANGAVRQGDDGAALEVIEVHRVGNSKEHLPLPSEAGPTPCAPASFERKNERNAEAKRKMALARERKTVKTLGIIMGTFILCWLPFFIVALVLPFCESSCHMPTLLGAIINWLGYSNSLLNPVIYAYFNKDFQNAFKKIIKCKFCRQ

[4] = target: 5-hydroxytryptamine receptor 2A (Homo sapiens) (UniProt P28223); test: 5HT2AH_AGON Eurofins SafetyScreen44 (BI); conditions: filed as agonist, Compound concentration 10.0 uM
[5] = target: Adenosine receptor A2a (Homo sapiens) (UniProt P29274); test: A2A/H Eurofins SafetyScreen44 (BI); conditions: filed as antagonist, Compound concentration 10.0 uM
[6] = target: Angiotensin-converting enzyme (Homo sapiens) (UniProt P12821); test: ACE(HU_AMTCH400) Eurofins SafetyScreen44 (BI); conditions: Compound concentration 10.0 uM
[7] = target: Alpha-1A adrenergic receptor (Homo sapiens) (UniProt P35348); test: ALPHA1AH_ANTAG Eurofins SafetyScreen44 (BI); conditions: filed as antagonist, Compound concentration 10.0 uM
[8] = target: T2, Alpha-2A adrenergic receptor (Homo sapiens) (UniProt P08913); test: ALPHA2A/HU Eurofins SafetyScreen44 (BI); conditions: Compound concentration 10.0 uM
T2 sequence (whole entry): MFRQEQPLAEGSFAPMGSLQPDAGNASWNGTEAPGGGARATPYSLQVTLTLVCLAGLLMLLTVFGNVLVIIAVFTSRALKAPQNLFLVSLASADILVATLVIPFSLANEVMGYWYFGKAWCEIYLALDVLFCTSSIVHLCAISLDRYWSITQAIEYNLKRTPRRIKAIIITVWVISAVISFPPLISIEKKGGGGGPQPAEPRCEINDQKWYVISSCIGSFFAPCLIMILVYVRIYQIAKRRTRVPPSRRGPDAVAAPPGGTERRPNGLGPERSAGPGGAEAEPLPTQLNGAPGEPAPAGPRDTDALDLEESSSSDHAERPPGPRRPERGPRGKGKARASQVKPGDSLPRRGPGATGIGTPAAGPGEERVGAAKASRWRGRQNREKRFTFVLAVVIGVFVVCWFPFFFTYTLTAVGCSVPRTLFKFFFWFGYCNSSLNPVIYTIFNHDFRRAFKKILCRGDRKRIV

[9] = target: Androgen receptor (Homo sapiens) (UniProt P10275); test: ANDROGEN/H Eurofins SafetyScreen44 (BI); conditions: Compound concentration 10.0 uM
[10] = target: Beta-1 adrenergic receptor (Homo sapiens) (UniProt P08588); test: BETA1/HUM Eurofins SafetyScreen44 (BI); conditions: Compound concentration 10.0 uM
[11] = target: Beta-2 adrenergic receptor (Homo sapiens) (UniProt P07550); test: BETA2/HUM Eurofins SafetyScreen44 (BI); conditions: filed as antagonist, Compound concentration 10.0 uM
[12] = target: GABA-A receptor; anion channel (Rattus norvegicus) (UniProt O09028+P15431+P18506+P18508+P19969+P20236+P23574+P23576+P28471+P28473+P30191+P62813+P63079+P63138+Q91ZM7+Q9ES14); test: BZD/CENTR/R Eurofins SafetyScreen44 (BI); assay type: protein-complex assay; conditions: Compound concentration 10.0 uM
[13] = target: Cannabinoid receptor 2 (Homo sapiens) (UniProt P34972); test: CB2/PERIPH/H Eurofins SafetyScreen44 (BI); conditions: Compound concentration 10.0 uM
[14] = target: Cholecystokinin receptor type A (Homo sapiens) (UniProt P32238); test: CCKA/H Eurofins SafetyScreen44 (BI); conditions: Compound concentration 10.0 uM
[15] = target: D(2) dopamine receptor (Homo sapiens) (UniProt P14416); test: D2SH_AGON Eurofins SafetyScreen44 (BI); conditions: filed as agonist, Compound concentration 10.0 uM
[16] = target: Sodium-dependent dopamine transporter (Homo sapiens) (UniProt Q01959); test: DATRANS/HUM Eurofins SafetyScreen44 (BI); conditions: Compound concentration 10.0 uM
[17] = target: Endothelin-1 receptor (Homo sapiens) (UniProt P25101); test: ETA/H Eurofins SafetyScreen44 (BI); conditions: Compound concentration 10.0 uM
[18] = target: Glucocorticoid receptor (Homo sapiens) (UniProt P04150); test: GCORTICOID/H Eurofins SafetyScreen44 (BI); conditions: Compound concentration 10.0 uM
[19] = target: Histamine H1 receptor (Homo sapiens) (UniProt P35367); test: H1/PYRIL/HS Eurofins SafetyScreen44 (BI); conditions: Compound concentration 10.0 uM
hERG (KCNH2) = hERG (KCNH2) (Homo sapiens, UniProt Q12809); test: HERG_DOFETILIDE Eurofins SafetyScreen44 (BI); conditions: probe [3H] Dofetilide, compound concentration 10 uM, read-out: % Ctrl
[20] = target: Tyrosine-protein kinase Lck (Homo sapiens) (UniProt P06239); test: LCK_CE Eurofins SafetyScreen44 (BI); conditions: Compound concentration 10.0 uM
[21] = target: Muscarinic acetylcholine receptor M3 (Homo sapiens) (UniProt P20309); test: M3/H Eurofins SafetyScreen44 (BI); conditions: Compound concentration 10.0 uM
[22] = target: MAO-A (Amine oxidase [flavin-containing] A) (Rattus norvegicus, UniProt P21396); test: MAO-A_ANTAG Eurofins SafetyScreen44 (BI); parameters: scale not given: the % may be the effect or the level left; conditions: compound concentration 10 uM, read-out: % Ctrl
[23] = target: voltage-gated Na+ channel (site 2) (Rattus norvegicus, UniProt F1LQQ7+O08562+O88420+O88457+P04774+P04775+P08104+P15389+P15390+Q62968); test: NA+/SITE2/R Eurofins SafetyScreen44 (BI); assay type: protein assay; conditions: rat brain, probe [3H]batrachotoxinin, compound concentration 10 uM, read-out: % Ctrl
[24] = target: Sodium-dependent noradrenaline transporter (Homo sapiens) (UniProt P23975); test: NEUP/H Eurofins SafetyScreen44 (BI); conditions: Compound concentration 10.0 uM
[25] = target: Glutamate NMDA receptor (Rattus norvegicus) (UniProt P35439+Q00959+Q00960+Q00961+Q62645+Q8VHN2+Q9R1M7); test: NMDA/R Eurofins SafetyScreen44 (BI); assay type: protein-complex assay; conditions: Compound concentration 10.0 uM
[26] = target: cGMP-inhibited 3',5'-cyclic phosphodiesterase 3A (Homo sapiens) (UniProt Q14432); test: PDE3A Eurofins SafetyScreen44 (BI); conditions: Compound concentration 10.0 uM
[27] = target: 3',5'-cyclic-AMP phosphodiesterase 4D (Homo sapiens) (UniProt Q08499); test: PDE4D2 Eurofins SafetyScreen44 (BI); conditions: Compound concentration 10.0 uM
[28] = target: Sodium-dependent serotonin transporter (Homo sapiens) (UniProt P31645); test: SLC6A4/H Eurofins SafetyScreen44 (BI); conditions: filed as antagonist, Compound concentration 10.0 uM
Sodium-dependent serotonin transporter (Homo sapiens), sequence (P31645 whole entry, looked up): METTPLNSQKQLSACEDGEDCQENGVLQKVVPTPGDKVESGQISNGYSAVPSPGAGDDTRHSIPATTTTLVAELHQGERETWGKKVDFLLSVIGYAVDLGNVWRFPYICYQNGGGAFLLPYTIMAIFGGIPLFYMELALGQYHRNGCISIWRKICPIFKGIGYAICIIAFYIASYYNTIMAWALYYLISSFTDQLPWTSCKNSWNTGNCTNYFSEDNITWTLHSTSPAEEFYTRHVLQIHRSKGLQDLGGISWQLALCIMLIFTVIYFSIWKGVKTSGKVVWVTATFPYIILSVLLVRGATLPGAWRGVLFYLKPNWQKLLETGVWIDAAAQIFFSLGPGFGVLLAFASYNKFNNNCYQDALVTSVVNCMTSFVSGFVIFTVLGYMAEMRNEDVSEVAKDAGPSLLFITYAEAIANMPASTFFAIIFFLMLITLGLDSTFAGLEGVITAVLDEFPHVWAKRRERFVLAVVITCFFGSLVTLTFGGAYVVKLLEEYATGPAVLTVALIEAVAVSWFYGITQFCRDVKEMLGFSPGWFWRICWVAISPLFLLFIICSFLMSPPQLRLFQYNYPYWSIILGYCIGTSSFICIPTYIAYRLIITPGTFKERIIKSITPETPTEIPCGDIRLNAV

3',5'-cyclic-AMP phosphodiesterase 4D (Homo sapiens), sequence (Q08499 whole entry): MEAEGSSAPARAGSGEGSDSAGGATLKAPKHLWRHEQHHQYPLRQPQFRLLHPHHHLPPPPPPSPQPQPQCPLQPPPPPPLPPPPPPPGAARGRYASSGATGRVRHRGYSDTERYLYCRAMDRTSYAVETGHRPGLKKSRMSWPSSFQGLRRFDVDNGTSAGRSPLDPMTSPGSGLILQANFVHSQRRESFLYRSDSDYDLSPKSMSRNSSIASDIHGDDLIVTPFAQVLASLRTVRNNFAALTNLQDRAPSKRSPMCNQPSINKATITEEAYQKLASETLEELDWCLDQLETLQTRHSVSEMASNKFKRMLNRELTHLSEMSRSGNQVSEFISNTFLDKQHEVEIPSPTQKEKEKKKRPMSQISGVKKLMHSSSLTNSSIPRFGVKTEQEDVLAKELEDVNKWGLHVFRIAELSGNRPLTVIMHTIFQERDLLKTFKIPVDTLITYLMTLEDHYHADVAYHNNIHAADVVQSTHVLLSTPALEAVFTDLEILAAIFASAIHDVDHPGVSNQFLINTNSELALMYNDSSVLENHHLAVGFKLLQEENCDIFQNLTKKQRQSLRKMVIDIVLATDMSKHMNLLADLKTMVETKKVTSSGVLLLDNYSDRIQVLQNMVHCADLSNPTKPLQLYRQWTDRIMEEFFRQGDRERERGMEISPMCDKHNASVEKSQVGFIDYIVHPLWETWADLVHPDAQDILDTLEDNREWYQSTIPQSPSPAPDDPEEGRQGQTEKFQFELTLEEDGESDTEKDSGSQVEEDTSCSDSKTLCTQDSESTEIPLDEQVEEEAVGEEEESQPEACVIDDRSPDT
Endothelin-1 receptor (Homo sapiens), sequence (P25101 whole entry): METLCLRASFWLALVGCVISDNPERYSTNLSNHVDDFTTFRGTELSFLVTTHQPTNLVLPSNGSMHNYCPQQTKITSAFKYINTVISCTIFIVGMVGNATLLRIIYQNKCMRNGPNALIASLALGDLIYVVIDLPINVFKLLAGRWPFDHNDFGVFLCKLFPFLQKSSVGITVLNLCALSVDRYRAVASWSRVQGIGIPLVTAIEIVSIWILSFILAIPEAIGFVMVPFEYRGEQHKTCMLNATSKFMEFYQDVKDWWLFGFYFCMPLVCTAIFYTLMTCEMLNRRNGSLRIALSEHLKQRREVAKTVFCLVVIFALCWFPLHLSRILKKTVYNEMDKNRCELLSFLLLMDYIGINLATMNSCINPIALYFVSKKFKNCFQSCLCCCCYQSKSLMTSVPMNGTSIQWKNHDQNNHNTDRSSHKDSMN
cGMP-inhibited 3',5'-cyclic phosphodiesterase 3A (Homo sapiens), sequence (Q14432 whole entry): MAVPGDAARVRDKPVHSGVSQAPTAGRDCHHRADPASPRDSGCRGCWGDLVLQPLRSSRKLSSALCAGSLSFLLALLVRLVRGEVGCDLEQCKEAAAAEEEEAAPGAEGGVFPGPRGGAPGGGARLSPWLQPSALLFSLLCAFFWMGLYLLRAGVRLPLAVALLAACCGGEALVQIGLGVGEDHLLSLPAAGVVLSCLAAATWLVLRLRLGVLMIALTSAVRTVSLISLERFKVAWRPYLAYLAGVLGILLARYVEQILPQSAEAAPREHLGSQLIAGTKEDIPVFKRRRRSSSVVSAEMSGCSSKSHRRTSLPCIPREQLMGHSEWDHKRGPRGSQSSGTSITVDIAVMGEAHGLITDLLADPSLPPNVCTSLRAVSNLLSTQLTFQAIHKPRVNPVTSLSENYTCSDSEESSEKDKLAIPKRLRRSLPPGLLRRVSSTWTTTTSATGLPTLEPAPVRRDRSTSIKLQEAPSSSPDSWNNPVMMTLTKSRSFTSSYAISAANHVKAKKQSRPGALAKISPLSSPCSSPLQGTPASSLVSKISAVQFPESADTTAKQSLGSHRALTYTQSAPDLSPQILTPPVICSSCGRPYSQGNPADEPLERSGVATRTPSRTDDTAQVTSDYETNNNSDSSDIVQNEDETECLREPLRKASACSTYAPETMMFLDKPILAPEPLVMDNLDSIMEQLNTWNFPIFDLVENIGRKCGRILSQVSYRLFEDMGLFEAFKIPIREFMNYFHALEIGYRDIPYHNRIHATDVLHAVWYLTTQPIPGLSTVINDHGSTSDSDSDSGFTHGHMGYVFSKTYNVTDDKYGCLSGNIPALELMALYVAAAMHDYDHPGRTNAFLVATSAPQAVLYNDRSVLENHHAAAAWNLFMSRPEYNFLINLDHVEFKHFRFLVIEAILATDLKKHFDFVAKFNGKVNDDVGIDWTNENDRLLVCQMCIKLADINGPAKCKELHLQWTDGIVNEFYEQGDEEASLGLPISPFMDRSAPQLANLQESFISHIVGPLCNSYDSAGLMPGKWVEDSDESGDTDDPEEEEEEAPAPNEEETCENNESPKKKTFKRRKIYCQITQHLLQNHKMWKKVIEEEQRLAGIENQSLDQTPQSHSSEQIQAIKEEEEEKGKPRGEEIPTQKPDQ
Histamine H1 receptor (Homo sapiens), sequence (P35367 whole entry): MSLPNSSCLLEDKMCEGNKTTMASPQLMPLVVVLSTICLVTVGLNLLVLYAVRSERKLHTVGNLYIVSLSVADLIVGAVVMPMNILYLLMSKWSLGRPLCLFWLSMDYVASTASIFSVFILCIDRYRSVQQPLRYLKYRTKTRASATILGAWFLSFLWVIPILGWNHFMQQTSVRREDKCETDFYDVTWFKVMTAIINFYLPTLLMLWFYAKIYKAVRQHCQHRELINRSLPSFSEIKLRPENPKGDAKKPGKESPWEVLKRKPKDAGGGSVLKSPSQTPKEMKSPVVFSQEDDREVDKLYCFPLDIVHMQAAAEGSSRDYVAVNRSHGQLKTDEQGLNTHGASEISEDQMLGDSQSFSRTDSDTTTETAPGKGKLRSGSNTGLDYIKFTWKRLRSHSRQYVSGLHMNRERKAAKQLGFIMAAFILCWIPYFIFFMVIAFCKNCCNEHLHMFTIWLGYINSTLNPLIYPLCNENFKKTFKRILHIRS
Beta-1 adrenergic receptor (Homo sapiens), sequence (P08588 whole entry, looked up): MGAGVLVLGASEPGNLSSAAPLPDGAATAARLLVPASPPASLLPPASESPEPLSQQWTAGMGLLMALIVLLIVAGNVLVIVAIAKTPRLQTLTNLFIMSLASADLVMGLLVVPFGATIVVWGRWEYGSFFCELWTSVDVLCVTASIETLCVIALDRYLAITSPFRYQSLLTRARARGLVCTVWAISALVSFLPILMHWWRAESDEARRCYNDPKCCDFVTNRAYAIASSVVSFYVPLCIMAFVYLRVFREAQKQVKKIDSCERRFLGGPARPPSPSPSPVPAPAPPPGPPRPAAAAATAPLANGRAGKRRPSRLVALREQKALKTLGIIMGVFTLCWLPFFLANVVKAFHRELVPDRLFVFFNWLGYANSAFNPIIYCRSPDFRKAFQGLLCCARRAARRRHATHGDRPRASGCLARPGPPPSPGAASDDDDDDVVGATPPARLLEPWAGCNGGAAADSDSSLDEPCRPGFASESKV
Sodium-dependent noradrenaline transporter (Homo sapiens), sequence (P23975 whole entry): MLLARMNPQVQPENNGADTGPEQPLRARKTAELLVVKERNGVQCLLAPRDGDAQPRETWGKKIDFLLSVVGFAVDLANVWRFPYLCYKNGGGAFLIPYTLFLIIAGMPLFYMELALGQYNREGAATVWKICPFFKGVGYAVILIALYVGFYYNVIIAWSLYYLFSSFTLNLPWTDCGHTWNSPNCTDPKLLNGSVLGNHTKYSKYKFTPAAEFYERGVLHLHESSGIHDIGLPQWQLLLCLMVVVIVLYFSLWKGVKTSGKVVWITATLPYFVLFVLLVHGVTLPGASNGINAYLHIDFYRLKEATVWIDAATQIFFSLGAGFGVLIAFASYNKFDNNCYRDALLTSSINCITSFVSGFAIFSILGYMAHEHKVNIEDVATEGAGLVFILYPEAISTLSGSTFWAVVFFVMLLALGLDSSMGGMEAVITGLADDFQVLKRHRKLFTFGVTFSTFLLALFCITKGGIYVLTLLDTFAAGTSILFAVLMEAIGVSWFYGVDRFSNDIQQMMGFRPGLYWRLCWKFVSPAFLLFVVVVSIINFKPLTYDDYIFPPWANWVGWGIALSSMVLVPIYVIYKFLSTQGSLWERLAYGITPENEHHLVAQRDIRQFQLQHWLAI
Cannabinoid receptor 2 (Homo sapiens), sequence (P34972 whole entry): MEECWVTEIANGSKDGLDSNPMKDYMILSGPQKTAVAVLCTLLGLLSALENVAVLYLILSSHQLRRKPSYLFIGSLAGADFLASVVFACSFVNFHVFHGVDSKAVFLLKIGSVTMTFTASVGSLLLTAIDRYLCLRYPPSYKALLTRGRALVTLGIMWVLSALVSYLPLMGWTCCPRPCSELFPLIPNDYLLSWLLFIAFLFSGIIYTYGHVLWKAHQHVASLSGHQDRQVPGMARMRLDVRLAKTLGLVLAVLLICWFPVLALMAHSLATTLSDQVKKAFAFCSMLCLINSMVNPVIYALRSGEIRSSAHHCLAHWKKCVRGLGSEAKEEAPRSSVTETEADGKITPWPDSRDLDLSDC

IC50 [1] | Structure (SMILES) | residual activity [2] [%] | residual activity [3] [%] | residual activity [4] [%] | residual activity [5] [%] | residual activity [6] [%] | residual activity [7] [%] | residual activity [8] [%] | residual activity [9] [%] | residual activity [10] [%] | residual activity [11] [%] | residual activity [12] [%] | residual activity [13] [%] | residual activity [14] [%] | residual activity [15] [%] | residual activity [16] [%] | residual activity [17] [%] | residual activity [18] [%] | residual activity [19] [%] | activity at 10 µM (hERG (KCNH2)) | further results
≤ 0.003 µM (active) | CNC(=O)COc1cc2cc(Nc3nc(N4C[C@H](C)C[C@H](C)C4)ncc3Cl)ccc2n(C)c1=O | 90 | 90 | 112 | 92 | 106 | 110 | 111 | 103 | 99 | 101 | 97 | 96 | 100 | 115 | 88 | 100 | 99 | 105 | 76% (not active) | residual activity [20]: 114%; residual activity [21]: 110%; activity at 10 µM [22]: 89% (not active); activity at 10 µM [23]: 114% (not active); residual activity [24]: 99%; residual activity [25]: 78%; residual activity [26]: 95%; residual activity [27]: 100%; residual activity [28]: 104%
10.2 µM (not active) | C[C@@H]1C[C@H](C)CN(c2ncc(Cl)c(Nc3ccc4c(c3)cc(OC(C)(C)C(=O)O)c(=O)n4C)n2)C1 | 82 | 97 | 125 | 107 | 111 | 99 | 104 | 104 | 99 | 89 | 147 | 103 | 137 | 86 | 100 | 111 | 97 | 86 | 95% (not active) | residual activity [20]: 87%; residual activity [21]: 111%; activity at 10 µM [22]: 96% (not active); activity at 10 µM [23]: 88% (not active); residual activity [24]: 102%; residual activity [25]: 88%; residual activity [26]: 99%; residual activity [27]: 87%; residual activity [28]: 91%
